For 13 molecules, EC50 results are on record in US7173004B2, “Macrocyclic isoquinoline peptide inhibitors of hepatitis C virus” (Bristol-Myers Squibb Company, priority 2003, dated 2007).

This assay has as its system HCV replicon (HCV 1b-377-neo replicon cells, Huh7). The experiment in a line: HCV replicon cell-based FRET assay. The following applies: Hepatitis C virus, Huh-7. Put shortly:
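Huh7 cells carrying a neo-selectable genotype 1b HCV replicon (~3,000 RNA copies/cell) were seeded at 1.5×10^4 cells/well and treated 4 days at 37 °C (0.5% DMSO final). CC50 was read by alamar Blue (4 h, ex 530/em 580 nm). Lysates with 10 μM EDANS/DABCYL NS3 protease FRET peptide were read kinetically (ex 340/em 490 nm, 25 °C, ~15 min) for % inhibition.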
(In general: A replicon is a self-replicating genome or part of one, used to study replication in cells.)
The term EC50 denotes the concentration giving half of the maximal effect. The molecule `COc1ccc2c(OC3CC4C(=O)NC5(C(=O)NS(=O)(=O)C6CC6)CC5C=CCCCCCC(NC(=O)OC(C)(C)C)C(=O)N4C3)nccc2c1OC` (stereo not shown) [Compound 134] yielded an EC50 below 50 nM.

As to `COc1ccc2c(OC3CC4C(=O)NC5(C(=O)NS(=O)(=O)C6CC6)CC5C=CCCCCCC(NC(=O)NC(C)(C)C)C(=O)N4C3)nccc2c1` (stereo not shown) [Compound 135], the EC50 was below 50 nM.

In the case of `COc1ccc2c(OC3CC4C(=O)NC5(C(=O)NS(=O)(=O)C6CC6)CC5C=CCCCCCC(NC(=O)NC5CCCC5)C(=O)N4C3)nccc2c1` (stereo not shown) [Compound 136], the EC50 is below 50 nM.

Turning to `COc1ccc2c(O[C@@H]3C[C@H]4C(=O)N[C@]5(C(=O)NS(=O)(=O)C6CC6)C[C@H]5/C=C\COCC[C@H](NC(=O)OC(C)(C)C)C(=O)N4C3)nccc2c1` [Compound 141, [(Z)-(1S,4R,13S,17R)-4-cyclopropanesulfonylaminocarbonyl-17-(6-methoxy-isoquinolin-1-yloxy)-2,14-dioxo-10-oxa-3,15-diaza-tricyclo[13.3.0.0^4,6]octadec-7-en-13-yl]-carbamic acid tert-butyl ester], the EC50 fell in the range of 500 to 5000 nM.

In turn, `CC(C)(C)OC(=O)N[C@H]1CN(S(=O)(=O)c2ccccc2[N+](=O)[O-])CCC/C=C\[C@@H]2C[C@@]2(C(=O)NS(=O)(=O)C2CC2)NC(=O)[C@@H]2C[C@@H](Oc3nccc4ccccc34)CN2C1=O` [Compound 145] returned an EC50 of 50 to 500 nM.

In turn, `CC(=O)N1CCC/C=C\[C@@H]2C[C@@]2(C(=O)NS(=O)(=O)C2CC2)NC(=O)[C@@H]2C[C@@H](Oc3nccc4ccccc34)CN2C(=O)[C@@H](NC(=O)OC(C)(C)C)C1` [Compound 146] had an EC50 of 500 to 5000 nM.

`CN1CCC/C=C\[C@@H]2C[C@@]2(C(=O)NS(=O)(=O)C2CC2)NC(=O)[C@@H]2C[C@@H](Oc3nccc4ccccc34)CN2C(=O)[C@@H](NC(=O)OC(C)(C)C)C1` [Compound 147]: the EC50 was below 50 nM.

For `COC(=O)N1CCC/C=C\[C@@H]2C[C@@]2(C(=O)NS(=O)(=O)C2CC2)NC(=O)[C@@H]2C[C@@H](Oc3nccc4ccccc34)CN2C(=O)[C@@H](NC(=O)OC(C)(C)C)C1` [Compound 148], the EC50 lay within 50 to 500 nM.

On to `CC(C)(C)COC(=O)N1CCCC=CC2CC2(C(=O)NS(=O)(=O)C2CC2)NC(=O)C2CC(Oc3nccc4ccccc34)CN2C(=O)C(NC(=O)OC(C)(C)C)C1` (stereo not shown) [Compound 149], for which the EC50 was 50 to 500 nM.

The molecule `CC(C)(C)NC(=O)N1CCC/C=C\[C@@H]2C[C@@]2(C(=O)NS(=O)(=O)C2CC2)NC(=O)[C@@H]2C[C@@H](Oc3nccc4ccccc34)CN2C(=O)[C@@H](NC(=O)OC(C)(C)C)C1` [Compound 150] had an EC50 of 50 to 500 nM.

In the case of `CC(C)(C)OC(=O)N[C@H]1CNCCC/C=C\[C@@H]2C[C@@]2(C(=O)NS(=O)(=O)C2CC2)NC(=O)[C@@H]2C[C@@H](Oc3nccc4ccccc34)CN2C1=O` [Compound 151], the EC50 was in the range of 50 to 500 nM.

Regarding `CC(C)(C)OC(=O)NC1CN(C(=O)C2CC2)CCCC=CC2CC2(C(=O)NS(=O)(=O)C2CC2)NC(=O)C2CC(Oc3nccc4ccccc34)CN2C1=O` (stereo not shown) [Compound 152], the half-maximal effective concentration (EC50) lay in the range of 50 to 500 nM.

Consider `CC(C)(C)OC(=O)N[C@H]1CN(S(C)(=O)=O)CCC/C=C\[C@@H]2C[C@@]2(C(=O)NS(=O)(=O)C2CC2)NC(=O)[C@@H]2C[C@@H](Oc3nccc4ccccc34)CN2C1=O` [Compound 153], for which the EC50 fell in the range of 50 to 500 nM.
